Results taken from ChEMBL document CHEMBL1153595, “Structure-based design and parallel synthesis of N-benzyl isatin oximes as JNK3 MAP kinase inhibitors” (Bioorg Med Chem Lett, 2009).

Experiments:
[1] = target: Mitogen-activated protein kinase 10 (Homo sapiens, UniProt P53779); experiment: Inhibition of JNK3 by spectrophotometric coupled enzyme assay
[2] = target: Mitogen-activated protein kinase 1 (Homo sapiens, UniProt P28482); experiment: Inhibition of ERK2 by spectrophotometric coupled enzyme assay
[3] = target: Mitogen-activated protein kinase 14 (Homo sapiens, UniProt Q16539); experiment: Inhibition of p38alpha by spectrophotometric coupled enzyme assay
[4] = target: T1, Receptor-type tyrosine-protein kinase FLT3 (Homo sapiens, UniProt P36888); experiment: Inhibition of FLT3
T1 sequence (P36888 whole entry): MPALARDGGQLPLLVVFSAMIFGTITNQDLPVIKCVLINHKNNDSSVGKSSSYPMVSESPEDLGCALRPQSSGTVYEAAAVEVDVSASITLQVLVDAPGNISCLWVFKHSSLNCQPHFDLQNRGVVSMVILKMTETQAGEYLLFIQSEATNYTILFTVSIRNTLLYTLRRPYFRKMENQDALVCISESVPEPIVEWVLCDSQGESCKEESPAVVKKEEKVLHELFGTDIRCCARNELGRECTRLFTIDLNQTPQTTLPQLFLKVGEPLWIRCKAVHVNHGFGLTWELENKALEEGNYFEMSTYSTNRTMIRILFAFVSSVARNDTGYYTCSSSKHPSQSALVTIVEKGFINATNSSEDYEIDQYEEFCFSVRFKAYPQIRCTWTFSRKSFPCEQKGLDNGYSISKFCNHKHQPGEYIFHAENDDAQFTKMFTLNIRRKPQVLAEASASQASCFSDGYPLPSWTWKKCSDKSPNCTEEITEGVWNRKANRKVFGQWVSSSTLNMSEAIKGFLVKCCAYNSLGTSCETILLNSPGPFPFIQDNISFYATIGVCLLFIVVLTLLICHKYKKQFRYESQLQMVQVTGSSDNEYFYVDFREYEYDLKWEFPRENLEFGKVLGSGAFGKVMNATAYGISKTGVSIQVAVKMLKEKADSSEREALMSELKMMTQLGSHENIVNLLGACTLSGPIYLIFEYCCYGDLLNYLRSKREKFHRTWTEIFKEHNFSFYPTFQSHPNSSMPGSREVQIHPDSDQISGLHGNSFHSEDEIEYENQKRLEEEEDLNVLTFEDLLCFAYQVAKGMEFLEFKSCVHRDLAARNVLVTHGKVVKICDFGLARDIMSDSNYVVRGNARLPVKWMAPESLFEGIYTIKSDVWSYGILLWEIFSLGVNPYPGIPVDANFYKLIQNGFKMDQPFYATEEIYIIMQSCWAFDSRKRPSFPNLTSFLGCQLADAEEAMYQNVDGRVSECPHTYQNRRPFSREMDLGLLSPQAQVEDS

[5] = target: T2, Tyrosine-protein kinase JAK3 (Homo sapiens, UniProt P52333); experiment: Inhibition of JAK3
T2 sequence (P52333 whole entry): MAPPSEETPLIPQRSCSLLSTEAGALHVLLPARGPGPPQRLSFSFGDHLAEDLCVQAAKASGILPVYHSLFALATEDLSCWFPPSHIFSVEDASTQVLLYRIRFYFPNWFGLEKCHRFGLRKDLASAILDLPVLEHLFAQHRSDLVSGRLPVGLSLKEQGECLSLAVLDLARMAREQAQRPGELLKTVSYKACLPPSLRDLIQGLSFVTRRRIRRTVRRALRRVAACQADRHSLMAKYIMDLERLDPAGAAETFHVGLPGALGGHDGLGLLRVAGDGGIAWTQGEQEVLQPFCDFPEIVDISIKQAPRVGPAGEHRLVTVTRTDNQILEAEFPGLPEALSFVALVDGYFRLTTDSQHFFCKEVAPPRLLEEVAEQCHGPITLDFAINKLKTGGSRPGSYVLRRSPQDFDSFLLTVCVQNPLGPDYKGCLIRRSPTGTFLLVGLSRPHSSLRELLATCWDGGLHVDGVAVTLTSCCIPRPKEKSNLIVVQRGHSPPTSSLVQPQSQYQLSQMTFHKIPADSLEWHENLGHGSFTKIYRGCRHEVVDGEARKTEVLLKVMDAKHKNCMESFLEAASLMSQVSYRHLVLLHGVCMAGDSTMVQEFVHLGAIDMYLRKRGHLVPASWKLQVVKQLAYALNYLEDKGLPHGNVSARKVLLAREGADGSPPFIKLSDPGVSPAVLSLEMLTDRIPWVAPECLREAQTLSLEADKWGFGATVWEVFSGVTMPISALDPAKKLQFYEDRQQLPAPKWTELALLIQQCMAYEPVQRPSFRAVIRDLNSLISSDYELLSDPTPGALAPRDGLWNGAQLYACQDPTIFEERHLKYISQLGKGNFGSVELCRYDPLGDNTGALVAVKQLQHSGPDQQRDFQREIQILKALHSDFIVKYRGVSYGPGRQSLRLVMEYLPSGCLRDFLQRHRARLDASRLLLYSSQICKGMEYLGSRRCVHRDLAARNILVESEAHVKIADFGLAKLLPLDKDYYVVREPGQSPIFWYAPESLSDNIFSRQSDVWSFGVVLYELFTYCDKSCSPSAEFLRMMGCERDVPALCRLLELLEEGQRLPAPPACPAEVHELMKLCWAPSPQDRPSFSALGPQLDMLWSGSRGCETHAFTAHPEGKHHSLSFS

[6] = target: Mitogen-activated protein kinase 9 (Homo sapiens, UniProt P45984); experiment: Inhibition of JNK2
[7] = target: RAC-gamma serine/threonine-protein kinase (Homo sapiens, UniProt Q9Y243); experiment: Inhibition of AKT3
[8] = target: Tyrosine-protein kinase Lck (Homo sapiens, UniProt P06239); experiment: Inhibition of LCK
[9] = target: Mitogen-activated protein kinase 8 (Homo sapiens, UniProt P45983); experiment: Inhibition of JNK1
[10] = target: Rho-associated protein kinase 1 (Homo sapiens, UniProt Q13464); experiment: Inhibition of ROCK1
[11] = target: Proto-oncogene tyrosine-protein kinase Src (Homo sapiens, UniProt P12931); experiment: Inhibition of Src
[12] = target: Cyclin-dependent kinase 2 (Homo sapiens, UniProt P24941); experiment: Inhibition of CDK2
Angiopoietin-1 receptor = Angiopoietin-1 receptor (Homo sapiens, UniProt Q02763); experiment: Inhibition of Tie2
[13] = target: Glycogen synthase kinase-3 beta (Homo sapiens, UniProt P49841); experiment: Inhibition of GSK3-beta
Sequence of Glycogen synthase kinase-3 beta (P49841 whole entry): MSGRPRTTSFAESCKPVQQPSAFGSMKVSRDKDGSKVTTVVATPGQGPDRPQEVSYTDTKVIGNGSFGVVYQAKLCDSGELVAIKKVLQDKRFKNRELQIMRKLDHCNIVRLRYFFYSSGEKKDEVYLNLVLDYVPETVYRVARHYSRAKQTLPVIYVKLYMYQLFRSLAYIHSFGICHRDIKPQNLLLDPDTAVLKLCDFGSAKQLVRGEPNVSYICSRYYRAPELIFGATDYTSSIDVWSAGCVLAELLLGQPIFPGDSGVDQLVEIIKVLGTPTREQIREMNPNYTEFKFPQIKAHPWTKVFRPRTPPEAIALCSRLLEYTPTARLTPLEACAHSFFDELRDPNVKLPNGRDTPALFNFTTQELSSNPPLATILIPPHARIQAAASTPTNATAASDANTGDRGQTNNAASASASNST

Sequence of Mitogen-activated protein kinase 10 (P53779 whole entry): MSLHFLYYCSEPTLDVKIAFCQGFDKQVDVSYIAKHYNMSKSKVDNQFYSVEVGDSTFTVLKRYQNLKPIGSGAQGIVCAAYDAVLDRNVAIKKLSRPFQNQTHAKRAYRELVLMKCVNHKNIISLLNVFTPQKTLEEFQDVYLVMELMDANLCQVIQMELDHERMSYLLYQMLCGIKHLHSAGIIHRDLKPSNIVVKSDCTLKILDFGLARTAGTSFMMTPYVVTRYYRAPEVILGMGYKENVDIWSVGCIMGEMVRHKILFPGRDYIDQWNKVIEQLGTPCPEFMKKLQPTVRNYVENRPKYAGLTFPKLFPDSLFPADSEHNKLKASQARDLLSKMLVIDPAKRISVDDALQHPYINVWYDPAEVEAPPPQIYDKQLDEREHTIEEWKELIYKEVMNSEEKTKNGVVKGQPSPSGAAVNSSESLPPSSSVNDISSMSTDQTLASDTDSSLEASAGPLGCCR
Sequence of Mitogen-activated protein kinase 1 (P28482 whole entry): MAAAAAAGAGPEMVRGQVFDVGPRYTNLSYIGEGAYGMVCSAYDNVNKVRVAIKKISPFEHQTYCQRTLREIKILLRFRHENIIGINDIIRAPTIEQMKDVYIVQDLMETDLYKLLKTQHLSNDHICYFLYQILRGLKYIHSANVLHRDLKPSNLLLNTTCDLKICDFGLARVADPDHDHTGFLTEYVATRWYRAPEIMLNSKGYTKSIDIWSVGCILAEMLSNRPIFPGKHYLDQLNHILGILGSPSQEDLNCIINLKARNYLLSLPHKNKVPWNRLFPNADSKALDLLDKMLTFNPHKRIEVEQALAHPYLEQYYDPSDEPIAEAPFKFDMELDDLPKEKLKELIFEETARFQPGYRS
Sequence of Mitogen-activated protein kinase 14 (Q16539 whole entry): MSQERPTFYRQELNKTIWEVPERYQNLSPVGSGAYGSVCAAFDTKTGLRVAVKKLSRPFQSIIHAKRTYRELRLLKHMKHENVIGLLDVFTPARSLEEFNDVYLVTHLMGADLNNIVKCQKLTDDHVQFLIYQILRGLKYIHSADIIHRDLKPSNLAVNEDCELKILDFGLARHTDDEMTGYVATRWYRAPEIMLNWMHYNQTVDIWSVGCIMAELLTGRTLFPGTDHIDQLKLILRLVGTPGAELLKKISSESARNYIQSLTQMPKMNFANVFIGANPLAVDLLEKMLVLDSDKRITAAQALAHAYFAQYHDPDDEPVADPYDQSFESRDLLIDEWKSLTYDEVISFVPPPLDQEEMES
Sequence of Tyrosine-protein kinase Lck (P06239 whole entry): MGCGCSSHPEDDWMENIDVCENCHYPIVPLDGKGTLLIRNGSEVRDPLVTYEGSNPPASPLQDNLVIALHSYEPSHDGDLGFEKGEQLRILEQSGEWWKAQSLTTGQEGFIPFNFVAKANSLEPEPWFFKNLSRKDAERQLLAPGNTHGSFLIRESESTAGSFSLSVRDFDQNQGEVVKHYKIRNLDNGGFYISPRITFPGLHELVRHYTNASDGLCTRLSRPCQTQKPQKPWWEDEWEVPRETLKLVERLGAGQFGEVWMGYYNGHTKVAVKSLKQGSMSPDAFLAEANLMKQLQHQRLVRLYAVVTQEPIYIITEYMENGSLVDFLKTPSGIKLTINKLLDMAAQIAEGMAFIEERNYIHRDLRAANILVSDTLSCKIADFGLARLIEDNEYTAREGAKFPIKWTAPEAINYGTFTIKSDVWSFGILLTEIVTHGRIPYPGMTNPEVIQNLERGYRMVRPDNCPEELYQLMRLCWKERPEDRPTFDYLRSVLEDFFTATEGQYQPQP
Sequence of RAC-gamma serine/threonine-protein kinase (Q9Y243 whole entry): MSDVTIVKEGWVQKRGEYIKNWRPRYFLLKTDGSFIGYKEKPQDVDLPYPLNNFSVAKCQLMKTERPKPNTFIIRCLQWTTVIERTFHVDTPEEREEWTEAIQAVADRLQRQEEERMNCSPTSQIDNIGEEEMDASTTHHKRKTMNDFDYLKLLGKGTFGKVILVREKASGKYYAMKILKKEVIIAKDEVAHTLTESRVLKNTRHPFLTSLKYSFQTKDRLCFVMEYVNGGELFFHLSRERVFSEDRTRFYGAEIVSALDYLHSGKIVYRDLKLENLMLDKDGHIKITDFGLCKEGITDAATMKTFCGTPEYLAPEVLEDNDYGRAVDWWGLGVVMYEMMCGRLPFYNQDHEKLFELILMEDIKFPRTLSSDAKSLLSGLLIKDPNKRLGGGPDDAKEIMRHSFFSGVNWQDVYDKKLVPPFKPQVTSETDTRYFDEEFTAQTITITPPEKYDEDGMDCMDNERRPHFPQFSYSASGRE
Sequence of Rho-associated protein kinase 1 (Q13464 whole entry): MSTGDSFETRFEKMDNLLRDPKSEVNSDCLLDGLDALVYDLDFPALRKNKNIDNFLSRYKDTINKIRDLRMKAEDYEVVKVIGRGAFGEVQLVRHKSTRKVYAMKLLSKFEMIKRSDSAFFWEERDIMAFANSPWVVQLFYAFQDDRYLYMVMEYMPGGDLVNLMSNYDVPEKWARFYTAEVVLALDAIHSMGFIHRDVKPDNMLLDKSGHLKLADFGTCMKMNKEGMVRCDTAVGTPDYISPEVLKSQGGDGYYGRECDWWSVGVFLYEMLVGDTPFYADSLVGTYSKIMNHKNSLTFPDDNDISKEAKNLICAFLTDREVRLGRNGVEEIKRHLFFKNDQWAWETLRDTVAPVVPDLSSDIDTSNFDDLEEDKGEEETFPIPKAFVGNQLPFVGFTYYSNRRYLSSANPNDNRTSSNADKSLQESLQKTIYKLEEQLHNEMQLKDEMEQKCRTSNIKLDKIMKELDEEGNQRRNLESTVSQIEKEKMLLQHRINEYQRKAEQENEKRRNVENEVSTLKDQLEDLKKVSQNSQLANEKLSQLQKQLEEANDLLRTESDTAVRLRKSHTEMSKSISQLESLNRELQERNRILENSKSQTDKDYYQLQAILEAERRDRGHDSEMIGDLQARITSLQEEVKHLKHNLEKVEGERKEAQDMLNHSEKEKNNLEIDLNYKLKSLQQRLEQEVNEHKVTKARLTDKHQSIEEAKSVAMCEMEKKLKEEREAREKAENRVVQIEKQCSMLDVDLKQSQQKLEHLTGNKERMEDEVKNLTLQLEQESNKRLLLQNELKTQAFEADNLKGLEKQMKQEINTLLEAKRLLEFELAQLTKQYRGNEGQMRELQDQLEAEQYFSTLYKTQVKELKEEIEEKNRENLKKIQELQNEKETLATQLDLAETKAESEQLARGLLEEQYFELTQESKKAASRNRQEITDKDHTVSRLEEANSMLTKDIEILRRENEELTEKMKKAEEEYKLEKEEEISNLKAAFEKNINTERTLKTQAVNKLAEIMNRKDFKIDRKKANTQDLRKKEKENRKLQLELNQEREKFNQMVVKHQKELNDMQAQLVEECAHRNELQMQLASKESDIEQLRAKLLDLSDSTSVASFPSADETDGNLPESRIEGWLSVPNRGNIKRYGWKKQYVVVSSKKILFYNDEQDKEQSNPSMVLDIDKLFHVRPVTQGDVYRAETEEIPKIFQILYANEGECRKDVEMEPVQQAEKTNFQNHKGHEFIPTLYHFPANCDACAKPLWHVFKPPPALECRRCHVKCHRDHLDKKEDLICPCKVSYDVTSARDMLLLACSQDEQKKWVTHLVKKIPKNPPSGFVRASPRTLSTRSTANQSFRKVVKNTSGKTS
Sequence of Proto-oncogene tyrosine-protein kinase Src (P12931 2-536 limits assumed): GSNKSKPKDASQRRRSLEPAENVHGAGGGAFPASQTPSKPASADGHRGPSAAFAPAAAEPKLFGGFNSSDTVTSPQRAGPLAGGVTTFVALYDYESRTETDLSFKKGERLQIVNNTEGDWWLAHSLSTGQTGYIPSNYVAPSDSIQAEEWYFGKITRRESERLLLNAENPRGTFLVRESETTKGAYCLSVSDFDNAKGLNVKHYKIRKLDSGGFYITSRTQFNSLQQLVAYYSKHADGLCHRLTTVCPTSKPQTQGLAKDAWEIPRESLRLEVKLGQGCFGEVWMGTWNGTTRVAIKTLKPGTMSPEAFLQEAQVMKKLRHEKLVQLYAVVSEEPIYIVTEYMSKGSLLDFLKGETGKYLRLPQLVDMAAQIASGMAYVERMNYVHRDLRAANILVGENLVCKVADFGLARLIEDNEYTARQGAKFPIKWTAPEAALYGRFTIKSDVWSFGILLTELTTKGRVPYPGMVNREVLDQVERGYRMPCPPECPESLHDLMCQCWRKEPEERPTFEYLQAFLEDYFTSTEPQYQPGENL
Sequence of Mitogen-activated protein kinase 9 (P45984 whole entry): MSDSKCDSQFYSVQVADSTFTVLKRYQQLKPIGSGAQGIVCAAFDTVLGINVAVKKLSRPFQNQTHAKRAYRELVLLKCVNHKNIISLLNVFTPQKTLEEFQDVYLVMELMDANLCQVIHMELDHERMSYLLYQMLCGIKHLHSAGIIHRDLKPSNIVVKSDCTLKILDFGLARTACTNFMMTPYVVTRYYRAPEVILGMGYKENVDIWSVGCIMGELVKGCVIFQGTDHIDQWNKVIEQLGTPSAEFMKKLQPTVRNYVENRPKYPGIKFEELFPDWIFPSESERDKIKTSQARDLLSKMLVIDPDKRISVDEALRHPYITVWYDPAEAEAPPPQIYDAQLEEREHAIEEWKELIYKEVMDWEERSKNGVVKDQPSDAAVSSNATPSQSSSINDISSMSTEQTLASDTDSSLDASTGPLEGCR

Row | Ki [1] | SMILES | other results
1 | 0.2 µM | O=C1/C(=N\O)c2ccc(-c3ccccc3)cc2N1Cc1cc(F)cc2c1OCOC2 | –
2 | 0.3 µM | O=C(O)c1ccc2c(c1)N(Cc1cc(F)cc3c1OCOC3)C(=O)/C2=N\O | –
3 | > 30 µM | Cc1ccc2c(c1)/C(=N/O)C(=O)N2c1ccccc1 | –
4 | 1.4 µM | CCc1cccc2c1/C(=N/O)C(=O)N2Cc1cc(F)cc2c1OCOC2 | Ki [2]: > 15 µM
5 | 0.94 µM | O=C1/C(=N\O)c2ccccc2N1Cc1cccc([N+](=O)[O-])c1 | –
6 | 0.99 µM | COc1cc(CN2C(=O)/C(=N\O)c3ccccc32)cc(OC)c1 | –
7 | 2.7 µM | Cc1ccc2c(c1)/C(=N/O)C(=O)N2Cc1cccc(C(F)(F)F)c1 | –
8 | 0.14 µM | C=Cc1cccc2c1/C(=N/O)C(=O)N2Cc1cc(F)cc2c1OCOC2 | Ki [2]: > 15 µM; Ki [3]: 8 µM
9 | 0.79 µM | COc1cc(CN2C(=O)/C(=N\O)c3cc(F)ccc32)cc(OC)c1 | –
10 | > 10 µM | O=Nc1c(O)n(Cc2ccccc2)c2ccccc12 | –
11 | 0.51 µM | O=C1/C(=N\O)c2ccccc2N1Cc1cc(F)cc2c1OCOC2 | –
12 | > 10 µM | Cc1cccc(CN2C(=O)/C(=N\O)c3cc(C)ccc32)c1 | –
13 | 0.185 µM | O=C1/C(=N\O)c2c(Br)cccc2N1Cc1cc(F)cc2c1OCOC2 | Ki [2]: > 15 µM; Ki [3]: > 10 µM
14 | 12 µM | O=C1/C(=N\O)c2cc(Cl)ccc2N1Cc1ccccc1 | –
15 | 30 µM | COC(=O)c1cccc2c1/C(=N/O)C(=O)N2Cc1cc(F)cc2c1OCOC2 | Ki [2]: > 15 µM
16 | 0.16 µM | COC(=O)c1ccc2c(c1)N(Cc1cc(F)cc3c1OCOC3)C(=O)/C2=N\O | –
17 | 0.7 µM | Cc1cccc2c1/C(=N/O)C(=O)N2Cc1cc(F)cc2c1OCOC2 | Ki [2]: > 15 µM
18 | > 15 µM | O=C1/C(=N\O)c2c(CCc3ccccc3)cccc2N1Cc1cc(F)cc2c1OCOC2 | Ki [2]: > 15 µM; Ki [3]: 0.03 µM
19 | 5.8 µM | O=C1/C(=N\O)c2c(-c3cccc(F)c3)cccc2N1Cc1cc(F)cc2c1OCOC2 | Ki [2]: 23 µM; Ki [3]: 7.4 µM
20 | – | O=C1/C(=N\O)c2c(-c3ccccc3)cccc2N1Cc1cc(F)cc2c1OCOC2 | Ki [2]: 25 µM; Ki [3]: 9.5 µM
21 | 0.33 µM | O=C1/C(=N\O)c2ccc(C(F)(F)F)cc2N1Cc1cc(F)cc2c1OCOC2 | –
22 | 13 µM | O=C1/C(=N\O)c2c(-c3ccc(F)cc3)cccc2N1Cc1cc(F)cc2c1OCOC2 | Ki [2]: > 15 µM; Ki [3]: 3.4 µM
23 | 7 µM | O=C1/C(=N\O)c2ccccc2N1Cc1ccc([N+](=O)[O-])cc1 | –
24 | > 10 µM | O=C1/C(=N\O)c2cc(F)ccc2N1Cc1ccccc1 | –

Row | Ki [1] | SMILES | other results
25 | 0.61 µM | CCC(=O)Nc1ccc2c(c1)N(Cc1cc(F)cc3c1OCOC3)C(=O)/C2=N\O | –
26 | 0.24 µM | COc1ccc2c(c1)N(Cc1cc(F)cc3c1OCOC3)C(=O)/C2=N\O | –
27 | 2 µM | N#Cc1cccc2c1/C(=N/O)C(=O)N2Cc1cc(F)cc2c1OCOC2 | –
28 | 0.46 µM | CS(=O)(=O)Nc1ccc2c(c1)N(Cc1cc(F)cc3c1OCOC3)C(=O)/C2=N\O | –
29 | 0.4 µM | Nc1ccc2c(c1)N(Cc1cc(F)cc3c1OCOC3)C(=O)/C2=N\O | –
30 | 8.1 µM | O=C1/C(=N\O)c2ccccc2N1Cc1cccc(F)c1 | –
31 | 0.1 µM | O=C1/C(=N\O)c2ccc(Br)cc2N1Cc1cc(F)cc2c1OCOC2 | –
32 | 1 µM | CCNC(=O)c1ccc2c(c1)N(Cc1cc(F)cc3c1OCOC3)C(=O)/C2=N\O | –
33 | 1.7 µM | O=C1/C(=N\O)c2cc(OC(F)(F)F)ccc2N1Cc1cc(F)cc2c1OCOC2 | –
34 | 0.64 µM | O=C1/C(=N\O)c2ccc([N+](=O)[O-])cc2N1Cc1cc(F)cc2c1OCOC2 | –
35 | > 10 µM | Cc1ccc2c(c1)/C(=N/O)C(=O)N2Cc1ccccc1 | –
36 | 8.3 µM | O=C1/C(=N\O)c2ccccc2N1Cc1ccc(F)cc1 | –
37 | 9.9 µM | Cc1ccc(Cn2c(O)c(N=O)c3ccccc32)cc1 | –
38 | 6.8 µM | Cc1cccc(CN2C(=O)/C(=N\O)c3ccccc32)c1 | –
39 | > 10 µM | O=C1/C(=N\O)c2ccccc2N1Cc1ccccc1[N+](=O)[O-] | –
40 | 5 µM | O=Nc1c(O)n(Cc2cccc(Cl)c2)c2ccccc12 | –
41 | 0.74 µM | O=C1/C(=N\O)c2cc(Cl)ccc2N1Cc1cc(F)cc2c1OCOC2 | –
42 | 0.09 µM | Cc1ccc2c(c1)N(Cc1cc(F)cc3c1OCOC3)C(=O)/C2=N\O | Ki [4]: 4 µM; Ki [5]: > 30 µM; Ki [6]: 0.07 µM; Ki [7]: > 30 µM; Ki [8]: > 30 µM; Ki [2]: > 50 µM; Ki [9]: 0.45 µM; Ki [10]: > 30 µM; Ki [11]: > 30 µM; Ki [12]: > 30 µM; Ki (Angiopoietin-1 receptor): > 10 µM; Ki [3]: > 20 µM; Ki [13]: > 30 µM
43 | 8.5 µM | O=C1/C(=N\O)c2ccccc2N1Cc1ccccc1F | –
44 | 6.7 µM | O=Nc1c(O)n(Cc2ccc(Cl)cc2)c2ccccc12 | –
45 | 1.6 µM | COc1ccc(CN2C(=O)/C(=N\O)c3cc(F)ccc32)cc1 | –
46 | – | O=C1/C(=N\O)c2c(/C=C/c3ccccc3)cccc2N1Cc1cc(F)cc2c1OCOC2 | Ki [3]: 0.23 µM
47 | 5.2 µM | O=Nc1c(O)n(Cc2cccc(C(F)(F)F)c2)c2ccccc12 | –

Row | SMILES | Ki [1] | other results
48 | O=C1/C(=N\O)c2cc(Br)ccc2N1Cc1ccccc1 | 2.5 µM | –
